Values quoted from earlier work as cited in patent US20240238196A1 (Shilpa Medicare Limited, priority 2021, published 2024).

Compound: O=C(NC[C@H]1CN(c2ccc(N3CCOCC3=O)cc2)C(=O)O1)c1ccc(Cl)s1 [Rivaroxaban, 5-Chloro-N-({(5S)-2-oxo-3-[4-(3-oxo-4-morpholinyl)phenyl]-1,3-oxazolidin5-yl}methyl)-2-thiophenecarboxamide]
- Solubility in organic solvents (organic solvents, slightly soluble, according to CHMP assessment report for Xarelto): 1000 to 10000 µg/mL
- Solubility in water (in words) (water): practically insoluble
